Patent US20260272924A1, “ISOINDOLINE DERIVATIVE, BENZOINDOLE DERIVATIVE AND USE THEREOF” (SHANGHAI HELIOSON PHARMACEUTICAL CO., LTD., priority 2023, published 2026)

The molecules below were run on NCI-H929 multiple myeloma cells (assay: Cell Titer-GLO (CTG) assay for proliferation of NCI-H929 cells). Details: Homo sapiens, 72 hours.
Format: cell-based
Description: 1. Experimental objective: To determine inhibitory activities of compounds on NCI-H929 multiple myeloma cells.
NCI-H929 cells, purchased from Nanjing Cobioer Biotechnology Co., Ltd, were cultured in RPM11640 (Viva; C3010-0500) medium containing 10% fetal bovine serum (Viva, C04002-500) and 1% of penicillin-streptomycin at 37° C. with 5% of C02 and saturated humidity conditions.
The cells in logarithmic growth phase were plated at 5000 cells per well of a 96-well plate and after overnight incubation, compounds at 0.00512 nM, 0.0256 nM, 0.128 nM, 0.64 nM, 3.2 nM, 16 nM, 80 nM, and 400 nM were dosed into the plate with each dose in 2 duplicate wells. Cells were incubated at 37° C., 5% CO2 for 72 hours. After the incubation, the plate was placed at room temperature for half an hour, and then 50 μL of Cell Titer-Glo® (Promega, G7573) was added. The plate was placed on a shaker for uniform mixing for 2 minutes and was placed in the dark at room temperature for 10 minutes. The luminance signal was measured using SpectraMax Paradigm (Molecular Devices).
Cell activity inhibition rate (%)=1 00−(RLUcompound−RLUblank)/(RLUcontrol−RLUblank)×100%, where control refers to the 0.1% DMSO treatment group, and blank refers to the culture medium control. IC50 values and maximum inhibition rates of the compounds were calculated using a nonlinear regression function “Dose-Response-Inhibition” in Graphpad Prism 7.0.

| IC50 | SMILES |
| --- | --- |
| 0.004 nM | Cc1nc(N2CCN(C3CN(Cc4ccc(Cc5ccc6c7c(cccc57)C(=O)N6C5CCC(=O)NC5=O)cc4)C3)CC2)cc(-n2cnc(C(F)(F)F)c2)n1 (stereo not shown) [Example 54, 3-(6-(4-((3-(4-(2-methyl-6-(4-(trifluoromethyl)-1H-imidazol-1-yl)pyrimidin-4-yl)piperazin-1-yl)azetidin-1-yl)methyl)benzyl)-2-oxobenzo[cd]indol-1(2H)-yl)piperidin-2,6-dione] |
| 0.05 nM | Cc1cc(C(=O)N2CCN(Cc3ccc(Cc4ccc5c6c(cccc46)C(=O)N5C4CCC(=O)NC4=O)cc3)CC2)nc(-n2ccnc2)n1 (stereo not shown) [Example 11, 3-(6-(4-((4-(2-(1H-imidazol-1-yl)-6-methylpyrimidin-4-carbonyl)piperazin-1-yl)methyl)benzyl)-2-oxobenzo[cd]indol-1(2H)-yl)piperidin-2,6-dione] |
| 0.4 nM | O=C1CC[C@H](N2Cc3c(OCc4ccc(CN5CCN(c6ccnc(-c7cncs7)n6)CC5)cc4)cccc3C2=O)C(=O)N1 [Example 80, (S)-3-(1-oxo-4-((4-((4-(2-(thiazol-5-vi)pyrimidin-4-yl)piperazin-1-yl)methyl)benzyl)oxy)isoindolin-2-yl)piperidin-2,6-dione] |
| 0.02 nM | Cc1nnc(-c2cccc(N3CCN(Cc4ccc(Cc5ccc6c7c(cccc57)C(=O)N6[C@@H]5CCC(=O)NC5=O)cc4)CC3)n2)s1 [Example 36, (R)-3-(6-(4-((4-(6-(5-methyl-1,3,4-thiadiazol-2-yl)pyridin-2-yl)piperazin-1-yl)methyl)benzyl)-2-oxobenzo[cd]indol-1(2H)-yl)piperidin-2,6-dione] |
| 0.03 nM | Cc1nc(N2CCN(Cc3ccc(Cc4ccc5c6c(cccc46)C(=O)N5C4CCC(=O)NC4=O)cc3)CC2)cc(-n2cc(C(F)(F)F)nn2)n1 (stereo not shown) [Example 73, 3-(6-(4-((4-(2-methyl-6-(4-(trifluoromethyl)-1H-1,2,3-triazol-1-yl)pyrimidin-4-yl)piperazin-1-yl)methyl)benzyl)-2-oxobenzo[cd]indol-1(2H)-yl)piperidin-2,6-dione] |
| 0.03 nM | Cc1ncn(-c2cccc(N3CCN(Cc4ccc(Cc5ccc6c7c(cccc57)C(=O)N6[C@@H]5CCC(=O)NC5=O)cc4)CC3)n2)n1 [Example 38, (R)-3-(6-(4-((4-(6-(3-methyl-1H-1,2,4-triazol-1-yl)pyridin-2-yl)piperazin-1-yl)methyl)benzyl)-2-oxobenzo[cd]indol-1(2H)-yl)piperidin-2,6-dione] |
| < 0.005 nM | O=C1CCC(N2C(=O)c3cccc4c(Cc5ccc(CN6CC(N7CCN(c8cccc(-n9ccnc9)n8)CC7)C6)cc5)ccc2c34)C(=O)N1 (stereo not shown) [Example 32] |
| 0.003 nM | Cc1ncn(-c2cccc(N3CCN(C4CN(Cc5ccc(Cc6ccc7c8c(cccc68)C(=O)N7C6CCC(=O)NC6=O)cc5)C4)CC3)n2)n1 (stereo not shown) [Example 53, 3-(6-(4-((3-(4-(6-(3-methyl-1H-1,2,4-triazol-1-yl)pyridin-2-yl)piperazin-1-yl)azetidin-1-yl)methyl)benzyl)-2-oxobenzo[cd]indol-1(2H)-yl)piperidin-2,6-dione] |
| 0.01 nM | O=C1CCC(N2C(=O)c3cccc4c(Cc5ccc(CN6CCN(C7CCN(c8ccnc(-n9cnc(C(F)(F)F)c9)n8)CC7)CC6)cc5)ccc2c34)C(=O)N1 (stereo not shown) [Example 40, 3-(2-oxo-6-(4-((4-(1-(2-(4-(trifluoromethyl)-1H-imidazol-1-yl)pyrimidin-4-yl)piperidin-4-yl)piperazin-1-yl)methyl)benzyl)benzo[cd]indol-1(2H)-yl)piperidin-2,6-dione] |
| 0.1 nM | Cc1nc(N2CCN(Cc3ccc(COc4cccc5c4CN([C@H]4CCC(=O)NC4=O)C5=O)cc3)CC2)cc(-n2cnc(C(F)(F)F)c2)n1 [Example 72, (S)-3-(4-((4-((4-(2-methyl-6-(4-(trifluoromethyl)-1H-imidazol-1-yl)pyrimidin-4-yl)piperazin-1-yl)methyl)benzyl)oxy)-1-oxoisoindolin-2-yl)piperidin-2,6-dione] |
